Reference: patent US20170314007A1, “MEDICAMENT DESIGN POCKET OF ORNITHINE DECARBOXYLASE AND APPLICATION OF MEDICAMENT DESIGN POCKET” (CHINA THREE GORGES UNIVERSITY, priority 2014, published 2017)

Target: T1, human ODC (Homo sapiens, UniProt P11926)
T1 construct: His tag (from pET28a); made in house; host or cells: Escherichia coli BL21
T1 sequence (P11926 1-461): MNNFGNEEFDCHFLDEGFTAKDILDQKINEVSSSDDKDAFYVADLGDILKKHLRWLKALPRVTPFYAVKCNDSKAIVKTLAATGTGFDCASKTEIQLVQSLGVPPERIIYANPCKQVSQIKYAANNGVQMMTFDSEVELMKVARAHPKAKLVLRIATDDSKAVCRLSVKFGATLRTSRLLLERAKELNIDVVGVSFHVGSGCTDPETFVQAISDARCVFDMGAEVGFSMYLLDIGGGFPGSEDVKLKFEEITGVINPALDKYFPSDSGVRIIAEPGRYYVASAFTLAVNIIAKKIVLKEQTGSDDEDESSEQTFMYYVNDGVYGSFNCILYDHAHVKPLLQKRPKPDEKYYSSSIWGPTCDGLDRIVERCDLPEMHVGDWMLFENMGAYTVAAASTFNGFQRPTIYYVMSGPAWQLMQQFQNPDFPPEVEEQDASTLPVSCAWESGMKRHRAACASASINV
Assay: Detection of inhibitory activity of inhibitor for human ODC protein (absorbance at 426 nm, ODC inhibition ratio)
Format: biochemical
Settings: for inhibitory capacity on human ODC compared with DFMO: 1 mM of the medicament, comparison of histograms with DFMO inhibitor
Experimental: 400 uL substrate reaction mixture and 50 ug ODC protein are added to EP tube, mixed evenly, and the EP tube is placed in 37° C. water bath for 30 min; 400 uL 10% TDA is added to terminate the reaction, centrifuged 5 min at 5000 rpm at room temperature, then 100 uL supernatant is fetched and mixed with 200 uL of 4 mol/L NaOH, 400 uL of n-amyl alcohol is added to mix well, centrifuged 5min at 2000 rpm, then 200 uL of the supernatant is transferred to a new EP tube, and 200 uL of 0.1 mol/L sodium tetraborate (pH 8.0) is added to mix evenly, and 200 uL of 10 mmol/L trinitrobenzene sulfonic acid is added to mix fully, and then 400 uL DMSO is added to fix fully for 1 min, centrifuged 5 min at 3000 rpm; finally the supernatant is fetched to 96-well plate and its absorbance at 426 nm is detected by a microplate reader, to get the OD value with out adding […];
According to the method described in step 4), after adding 400 μL substrate reaction mixture, the ODC inhibitor is added immediately, and subsequent procedures are the same as the step 4);
The ODC inhibition ratio is calculated according to the following formula;
Control difference=the mean OD value of the control group adding the inhibitor−the mean OD value of the control group without adding inhibitor, of which, the inhibitor added in step 5) in the control group is DFMO inhibitor;
Experimental difference= the mean OD value of the experiment group adding the inhibitor−the mean OD value of the experiment group without adding inhibitor.
ODC inhibition ratio=[(control difference-experimental difference)/control difference]×100%.
The substrate reaction mixture in step 4): dissolve 17.57 ul β-mercaptoethanol, 55.84mg of 1.5 mM EDTA disodium salt, 75 nM PLP stock solution and 2 mM ornithine hydrochloride in 150 mM PBS (pH 7.1).
400 uL substrate reaction mixture (17.57 ul of β-mercaptoethanol, 55.84 mg of 1.5 mM EDTA disodium salt, 75 nM PLP stock solution, 2 mM ornithine hydrochloride are dissolved in 150 mM PBS (pH 7.1)) and 50 ug ODC protein are added to a 1.5 mL of EP tube, mixed evenly, and the EP tube is placed in 37° C water bath for 30 min; 400 uL 10% TDA is added to terminate the reaction, centrifuged 5 min at 5000 rpm at room temperature, then 100 uL supernatant is fetched and mixed with 200 uL of 4 mol/L NaOH, 400 uL of n-amyl alcohol is added to mix well, centrifuged 5 min at 2000 rpm then 200 uL of the supernatant is transferred to a new EP tube, and 200 uL of sodium tetraborate (0.1 mol/L, pH 8.0) is added to mix evenly, and 200 uL of 10 mmol/L trinitrobenzene sulfonic acid is added to mix fully, and then 400 uL DMSO is added to fix fully for 1 min, centrifuged 5 min at 3000 rpm, finally the supernatant is fetched to 96-well plate and its absorbance at 426 nm is detected by a microplate reader. […]

Structure (SMILES) | inhibitory capacity on human ODC compared with DFMO | further results
CCOC(=O)c1cccc(NC(=O)c2ccccc2)c1 [D17, ethyl-3-(benzoylamino) methyl benzoate] | equivalent to that of 2.5 mM DFMO | –
N#Cc1ccc(C2Nc3cccc4cccc(c34)N2)cc1 | – | inhibitory activity on human ODC (concentration range 1 nM-5 mM, histogram FIG. 5): has the ability to inhibit human ODC activity within the range of 1 nM-5 mM, and the higher the concentration, the stronger tire inhibitory ability
COc1ccc(C(=O)C[n+]2ccccc2/C=N/[O-])cc1 [D19, 2-[(hydroxyimino)methyl]-1-[2-(4-methoxyphenyl)-2-oxoethyl] pyridinium] | equivalent to that of 2.5 mM DFMO | –
CN(C)c1ccc(/C=N/Nc2nc(N)nc(N)n2)cc1 [4-(dimethylamino)-benzaldehyde-(4,6-diamino-1,3,5) triazine] | – | inhibitory activity on human ODC (concentration range 1 nM-1 mM, histogram FIG. 9, compared with DFMO): has inhibitory effect on human ODC activity within the concentration range of 1 nM-1 mM
